Experimental findings from patent publication US20220241249A1, “PHARMACEUTICAL COMPOSITION AND KIT CONTAINING NOVEL PENAM DERIVATIVE OR SALT THEREOF AND ONE OR MORE COMPOUNDS SELECTED FROM beta-LACTAMASE INHIBITORY COMPOUND AND ANTIBACTERIAL COMPOUND OR SALTS THEREOF” (priority 2019, published 2022) are described below.

Experiment in all cases: Antibacterial activity evaluation test, MIC by broth microdilution (CLSI)
Common to all, as to assay type: cell-based
(Broth dilution looks for growth in wells or tubes with falling amounts of substance.)

The test system of test [1] is AmpC-derepressed Pseudomonas aeruginosa mutant strain (S-3028). The following applies: for MIC: Pseudomonas aeruginosa. As for the experimental part:
(§1) The minimum inhibitory concentration (MIC) was measured according to the Clinical and Laboratory Standards Institute (CLSI) standard method by using the following broth microdilution method.
(§2) As bacteria, a Pseudomonas aeruginosa strain ATCC27853, an AmpC-derepressed Pseudomonas aeruginosa mutant strain (S-3028), an IMP-1-containing Pseudomonas aeruginosa strain (S-2838), a VIM-2-containing Pseudomonas aeruginosa strain (S-3779), a GES-19 and GES-20-containing Pseudomonas aeruginosa strain (S-3759), a CTX-M-15-containing Escherichia coli strain (TK-1747), a KPC-2-containing Klebsiella pneumoniae strain (Y-995), an OXA-48-containing Klebsiella pneumoniae strain (Y-1062), and an NDM-1-containing Klebsiella pneumoniae strain (Y-1007) were used. The test bacterial cells that had been cultured overnight on a Mueller Hinton agar medium were scraped off, suspended at a density equivalent to 0.5 McFarland standard, and diluted 10-fold, thereby obtaining an inoculum. A cation-adjusted Mueller Hinton medium containing a test compound was inoculated with 0.005 mL of the inoculum, and the cells were cultured at 35° C. for 16 to 20 hours. The minimum drug concentration at which the growth of bacteria was not visually observed was defined as MIC (μg/mL).
(§3) An antibacterial activity evaluation test was performed in the same manner as in Test Example 1.

Test [2] relates to CTX-M-15-containing Escherichia coli strain (TK-1747). The following applies: for MIC: Escherichia coli. The protocol: as §1, §2, §3
Test [3] has as its system GES-19 and GES-20-containing Pseudomonas aeruginosa strain (S-3759). The settings on record: for MIC: Pseudomonas aeruginosa. The protocol: as §1, §2, §3
Test [4] deals with IMP-1-containing Pseudomonas aeruginosa strain (S-2838). The settings on record: for MIC: Pseudomonas aeruginosa. As for the experimental part: as §1, §2, §3
For test [5], the system named is KPC-2-containing Klebsiella pneumoniae strain (Y-995). The settings on record: for MIC: Klebsiella pneumoniae. The protocol: as §1, §2, §3
Test [6] deals with NDM-1-containing Klebsiella pneumoniae strain (Y-1007). The following applies: for MIC: Klebsiella pneumoniae. As for the experimental part:
as §1, §2, §3

The test system of test [7] is OXA-48-containing Klebsiella pneumoniae strain (Y-1062). The settings on record: for MIC: Klebsiella pneumoniae. The protocol:
as §1, §2, §3

The test system of test [8] is Pseudomonas aeruginosa strain ATCC27853. The following applies: ATCC27853. The protocol: as §1, §2, §3
Test [9] relates to VIM-2-containing Pseudomonas aeruginosa strain (S-3779). The following applies: for MIC: Pseudomonas aeruginosa. As for the experimental part:
as §1, §2, §3

Each structure is given as a SMILES string. Values after ≈ are worked out from the molar mass of the structure shown. Read-outs that look alike come from different tables or passages of the source.

For the compound `CC(C)(O/N=C(\C(=O)NC1C(=O)N2C[C@@](C(=O)O)(N3CCN(NC(=O)C(=O)NNC(=O)C(=O)c4ccc(O)c(O)c4Cl)C3=O)S[C@H]12)c1nc(N)sc1Cl)C(=O)O` (stereo partly drawn) [Example 136, (3R,5R,6R)-6-((Z)-2-(2-amino-5-chlorothia-zol-4-yl)-2-(((2-carboxy-propan-2-yl)oxy)imino)-acetamido)-3-(3-(2-(2-(2-(2-chloro-3,4-dihydroxyphenyl)-2-oxoacetyl)hydrizinyl)-2-oxoacetamido)-2-oxoimidazolidin-1-yl)-7-oxo-4-thia-1-aza-bicyclo[3.2.0]heptane-3-carboxylic acid], the MIC – broadly, the lowest concentration that inhibits growth of the organism – in test [1] is 0.12 µg/mL (≈ 0.139 µM); in test [2] it was below 0.06 µg/mL; in test [3], 0.5 µg/mL (≈ 0.58 µM); in test [4], 0.12 µg/mL (≈ 0.139 µM); in test [5], 0.25 µg/mL (≈ 0.29 µM); in test [6], 0.12 µg/mL (≈ 0.139 µM). Also, the MIC in [7] was determined as 0.12 µg/mL (≈ 0.139 µM); in test [8] (Pseudomonas aeruginosa) it was 0.5 µg/mL (≈ 0.58 µM); in test [9], 0.5 µg/mL (≈ 0.58 µM).

For `Nc1nc(/C(=N/OC2(C(=O)O)CCC2)C(=O)N[C@@H]2C(=O)N3C[C@@](C(=O)O)(N4CCN(NC(=O)C(=O)c5ccc(O)c(O)c5Cl)C4=O)S[C@H]23)c(Cl)s1` [Example 78, (3R,5R,6R)-6-((Z)-2-(2-amino-5-chlorothiazol-4-yl)-2-((1-carboxycyclobutoxy)imino)acetamido)-3-(3-(2-(2-chloro-3,4-dihydroxyphenyl)-2-oxoacetamido)-2-oxoimidazolidin-1-yl)-7-oxo-4-thia-1-azabicyclo[3.2.0]heptane-3-carboxylic acid], the MIC was below 0.06 µg/mL in test [1]; 0.25 µg/mL (≈ 0.317 µM) in test [2]; 1 µg/mL (≈ 1.27 µM) in [3]; 1 µg/mL (≈ 1.27 µM) in [4]; 0.25 µg/mL (≈ 0.317 µM) in test [5]; below 0.06 µg/mL in [6]. Moreover, the MIC in test [7] is 0.25 µg/mL (≈ 0.317 µM); in test [8] (Pseudomonas aeruginosa) it was 0.5 µg/mL (≈ 0.635 µM); in test [9], 0.25 µg/mL (≈ 0.317 µM).

`CC(C)(O/N=C(\C(=O)NC1C(=O)N2C[C@@](C(=O)O)(N3CCN(NC(=O)C(=O)c4cc(O)c(O)cc4F)C3=O)S[C@H]12)c1csc(N)n1)C(=O)O` (stereo partly drawn) [Example 147, (3R,5R,6R)-6-((Z)-2-(2-aminothiazol-4-yl)-2-(((2-carboxypropan-2-yl)oxy)imino)aceta-mido)-3-(3-(2-(2-fluoro-4,5-dihydroxy-phenyl)-2-oxoaceta-mido)-2-oxoimidazol-idin-1-yl)-7-oxo-4-thia-1-azabicyclo[3.2.0]-heptane-3-carboxylic acid] registered an Antibacterial activity (MIC) Pseudomonas aeruginosa S-3028 in test [1] of 0.5 µg/mL. The Antibacterial activity (MIC) Escherichia coli TK-1747 in test [2] came out at 1 µg/mL. In addition, the Antibacterial activity (MIC) Pseudomonas aeruginosa S-3759 in test [3] worked out at 1 µg/mL. This compound also showed an Antibacterial activity (MIC) Pseudomonas aeruginosa S-2838 in [4] of 4 µg/mL. This compound displayed an Antibacterial activity (MIC) Klebsiella pneumoniae Y-995 in test [5] of 0.25 µg/mL. This compound also returned an Antibacterial activity (MIC) Klebsiella pneumoniae Y-1007 in test [6] below 0.06 µg/mL. The same compound displayed an Antibacterial activity (MIC) Klebsiella pneumoniae Y-1062 in test [7] of 4 µg/mL. This compound also had an Antibacterial activity (MIC) Pseudomonas aeruginosa ATCC 27853 in [8] (Pseudomonas aeruginosa) of 1 µg/mL. The Antibacterial activity (MIC) Pseudomonas aeruginosa S-3779 in test [9] was 1 µg/mL.

In test [1], `CC(C)(O/N=C(\C(=O)NC1C(=O)N2C[C@@](C(=O)O)(N3CCC[C@H](NC(=O)C(=O)c4ccc(O)c(O)c4Cl)C3=O)S[C@H]12)c1csc(N)n1)C(=O)O` (stereo partly drawn) [Example 156] had an Antibacterial activity (MIC) Pseudomonas aeruginosa S-3028 of 0.5 µg/mL. This compound also gave an Antibacterial activity (MIC) Escherichia coli TK-1747 in test [2] of 0.12 µg/mL. The compound also gave an Antibacterial activity (MIC) Pseudomonas aeruginosa S-3759 in test [3] of 2 µg/mL. The Antibacterial activity (MIC) Pseudomonas aeruginosa S-2838 in test [4] amounted to 1 µg/mL. Besides, in [5], the Antibacterial activity (MIC) Klebsiella pneumoniae Y-995 is 0.12 µg/mL. The Antibacterial activity (MIC) Klebsiella pneumoniae Y-1007 in test [6] is below 0.06 µg/mL. For the same compound, in [7], the Antibacterial activity (MIC) Klebsiella pneumoniae Y-1062 was found to be 0.5 µg/mL. The compound further showed an Antibacterial activity (MIC) Pseudomonas aeruginosa ATCC 27853 in test [8] (Pseudomonas aeruginosa) of 2 µg/mL. Also, the Antibacterial activity (MIC) Pseudomonas aeruginosa S-3779 in [9] stood at 1 µg/mL.

Consider `CC(C)(O/N=C(\C(=O)N[C@@H]1C(=O)N2C[C@@](C(=O)O)(N3CCCN(NC(=O)C(=O)c4ccc(O)c(O)c4Cl)C3=O)S[C@H]12)c1csc(N)n1)C(=O)O` [Example 86, (3R,5R,6R)-6-((Z)-2-(2-aminothiazol-4-yl)-2-(((2-carboxypropan-2-yl)oxy)imino)acetamido)-3-(3(-2-(2-chloro-3,4-dihydroxyphenyl)-2-oxoacetamido)-2-oxotetrahydropyrimidin-1(2H)-yl)-7-oxo-4-thia-1-azabicyclo[3.2.0]heptane-3-carboxylic acid], for which the MIC in test [1] was 1 µg/mL (≈ 1.32 µM); in test [2] it was 1 µg/mL (≈ 1.32 µM); in [3], 2 µg/mL (≈ 2.65 µM); in test [4], 1 µg/mL (≈ 1.32 µM); in test [5], 0.5 µg/mL (≈ 0.662 µM); in test [6], below 0.06 µg/mL. In addition, the values for the MIC in test [7], in test [8] (Pseudomonas aeruginosa) and in test [9] were 1 µg/mL (≈ 1.32 µM), 4 µg/mL (≈ 5.3 µM) and 2 µg/mL (≈ 2.65 µM), respectively.

As to `CC(C)(O/N=C(\C(=O)N[C@@H]1C(=O)N2C[C@@](C(=O)O)(N3CC[C@H](NC(=O)C(=O)c4ccc(O)c(O)c4Cl)C3=O)S[C@H]12)c1csc(N)n1)C(=O)O` [Example 84, (3R,5R,6R)-6-((Z)-2-(2-aminothiazol-4-yl)-2-(((2-carboxypropan-2-yl)oxy)imino)acetamido)-3-((S)-3-(2-(2-chloro-3,4-dihydroxyphenyl)-2-oxoacetamido)-2-oxopyrrolidin-1-yl)-7-oxo-4-thia-1-azabicyclo[3.2.0]heptane-3-carboxylic acid], the MIC was 0.5 µg/mL (≈ 0.676 µM) in test [1]; below 0.06 µg/mL in test [2]; 1 µg/mL (≈ 1.35 µM) in test [3]; 0.5 µg/mL (≈ 0.676 µM) in test [4]; 0.5 µg/mL (≈ 0.676 µM) in test [5]; below 0.06 µg/mL in test [6]. Also, the figures for the MIC in [7], in [8] (Pseudomonas aeruginosa) and in test [9] were below 0.06 µg/mL, 0.5 µg/mL (≈ 0.676 µM) and 0.5 µg/mL (≈ 0.676 µM), respectively.

Turning to `CC(C)(O/N=C(\C(=O)N[C@@H]1C(=O)N2C[C@@](C(=O)O)(N3CCN(NC(=O)CCNC(=O)c4ccc(O)c(O)c4Cl)C3=O)S[C@H]12)c1csc(N)n1)C(=O)O` [Example 28, (3R,5R,6R)-6-((Z)-2-(2-aminothiazol-4-yl)-2-(((2-carboxypropan-2-yl)oxy)imino)acetamido)-3-(3-(3-(2-chloro-3,4-dihydroxybenzamido)propanamido)-2-oxoimidazolidin-1-yl)-7-oxo-4-thia-1-azabicyclo[3.2.0]heptane-3-carboxylic acid], the MIC in test [1] was 0.25 µg/mL (≈ 0.319 µM); in test [2] it was 2 µg/mL (≈ 2.55 µM); in test [3], 2 µg/mL (≈ 2.55 µM); in test [4] it was 0.25 µg/mL (≈ 0.319 µM); in [5], 1 µg/mL (≈ 1.28 µM); in test [6] it was below 0.06 µg/mL. Also, the MIC was 0.25 µg/mL (≈ 0.319 µM) in test [7], 0.5 µg/mL (≈ 0.638 µM) in test [8] (Pseudomonas aeruginosa) and 0.5 µg/mL (≈ 0.638 µM) in [9].

Regarding `CC(C)(O/N=C(\C(=O)N[C@@H]1C(=O)N2C[C@@](C(=O)O)(N3CCN(NC(=O)C(=O)N(O)CCNC(=O)c4ccc(O)c(O)c4Cl)C3=O)S[C@H]12)c1csc(N)n1)C(=O)O` [Example 104, (3R,5R,6R)-6-((Z)-2-(2-aminothiazol-4-yl)-2-(((2-carboxypropan-2-yl)oxy)imino)acetamido)-3-(3-(2-((2-(2-chloro-3,4-dihydroxybenzamido)ethyl)(hydroxy)amino)-2-oxoacetamido)-2-oxoimidazolidin-1-yl)-7-oxo-4-thia-1-azabicyclo[3.2.0]heptane-3-carboxylic acid], the MIC was 2 µg/mL (≈ 2.37 µM) in test [1]; 1 µg/mL (≈ 1.19 µM) in [2]; 4 µg/mL (≈ 4.74 µM) in [3]; 0.5 µg/mL (≈ 0.593 µM) in test [4]; 2 µg/mL (≈ 2.37 µM) in test [5]; below 0.06 µg/mL in test [6]. For the same compound, the MIC in [7] worked out at 2 µg/mL (≈ 2.37 µM); in test [8] (Pseudomonas aeruginosa ATCC 27853, 35° C., 16 to 20 hours, read-out: MIC), 2 µg/mL (≈ 2.37 µM); in test [9] it was 1 µg/mL (≈ 1.19 µM).

In the case of `CC(C)(O/N=C(\C(=O)NC1C(=O)N2C[C@@](C(=O)O)(N3CCN(NC(=O)NNC(=O)C(=O)c4ccc(O)c(O)c4Cl)C3=O)S[C@H]12)c1csc(N)n1)C(=O)O` (stereo partly drawn) [Example 153], in [1], the Antibacterial activity (MIC) Pseudomonas aeruginosa S-3028 came out at 0.12 µg/mL. The same compound returned an Antibacterial activity (MIC) Escherichia coli TK-1747 in [2] of 0.5 µg/mL. The same compound yielded an Antibacterial activity (MIC) Pseudomonas aeruginosa S-3759 in test [3] of 2 µg/mL. This compound had an Antibacterial activity (MIC) Pseudomonas aeruginosa S-2838 in test [4] of 0.5 µg/mL. This compound also came in with an Antibacterial activity (MIC) Klebsiella pneumoniae Y-995 in test [5] of 0.25 µg/mL. The compound further registered an Antibacterial activity (MIC) Klebsiella pneumoniae Y-1007 in test [6] below 0.06 µg/mL. The same compound gave an Antibacterial activity (MIC) Klebsiella pneumoniae Y-1062 in test [7] of 4 µg/mL. In test [8] (Pseudomonas aeruginosa), this compound had an Antibacterial activity (MIC) Pseudomonas aeruginosa ATCC 27853 of 0.5 µg/mL. In addition, the Antibacterial activity (MIC) Pseudomonas aeruginosa S-3779 in [9] stood at 1 µg/mL.
